The results in this text go back to PubChem BioAssay (NCI).

Test systems include OVCAR-8 ovarian; 786-0 renal; EKVX NSCLC; UO-31 renal; PC-3 prostate; SNB-75 CNS; NCI-H460 lung; DU-145 prostate; T-47D breast; CCRF-CEM leukemia.
Assay in all cases: DTP human tumour cell line panel, 48 h

Values joined by “and” are separate entries in the source; they are usually repeats but may differ in a detail not shown here. Equal values may be shown once.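 Grown in 96-well plates, cells were treated for 48 hours with each compound at five concentrations. Insufficient inhibition: endpoint recorded as highest concentration tested. GI50 marks 50% less growth. TGI: concentration producing complete growth inhibition.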 Where only a bound is given, the exact number is not on record here.

In the case of `CC(C)(C)c1[nH]cnc1/C=c1\[nH]c(=O)/c(=C/c2ccccc2)[nH]c1=O`, the 50% growth inhibitory concentration (GI50) in the assay on OVCAR-8 ovarian is less than 0.0125 µM; in the assay on 786-0 renal, less than 0.01 µM; in the assay on EKVX NSCLC it was 0.0482 µM; in the assay on UO-31 renal, less than 14.4 nM; in the assay on PC-3 prostate, less than 0.01 µM; in the assay on SNB-75 CNS, less than 0.01 µM. Besides, the GI50 was less than 10 nM in the assay on NCI-H460 lung, 0.0159 µM with DU-145 prostate, less than 0.0592 µM with T-47D breast and less than 0.01 µM with CCRF-CEM leukemia. Also, the TGI was found to be 50.8 µM in the assay on OVCAR-8 ovarian; 40.7 µM with 786-0 renal; 35.5 µM in the assay with EKVX NSCLC; 27.6 µM in the assay on UO-31 renal; 36.1 µM in the assay with PC-3 prostate; 44 µM in the assay on SNB-75 CNS. In addition, the total growth inhibition concentration (TGI) is 17.7 µM with NCI-H460 lung, 31.3 µM in the assay on DU-145 prostate, 30.9 µM with T-47D breast and more than 68.4 µM in the assay on CCRF-CEM leukemia.
`CN(N=O)C(=O)N[C@@H](C=O)[C@@H](O)[C@H](O)[C@H](O)CO`: the GI50 is more than 750 µM with OVCAR-8 ovarian; more than 750 µM in the assay with 786-0 renal; more than 750 µM with EKVX NSCLC; more than 750000 nM in the assay on UO-31 renal; 696 µM in the assay with SNB-75 CNS; more than 750000 nM in the assay on NCI-H460 lung. In addition, the GI50 with CCRF-CEM leukemia is more than 750 µM. In addition, the total growth inhibition concentration (TGI) in the assay with OVCAR-8 ovarian, with 786-0 renal, with EKVX NSCLC, in the assay with UO-31 renal, with PC-3 prostate and in the assay on SNB-75 CNS was more than 750 µM each time. The total growth inhibition concentration (TGI) in the assay with NCI-H460 lung is more than 750 µM; with DU-145 prostate it was more than 750 µM; with T-47D breast, more than 750 µM; in the assay on CCRF-CEM leukemia, 522 µM and > 750 µM.
As for `O=C(c1ccco1)c1nc2cc(F)ccc2[n+]([O-])c1C(F)(F)F`, the GI50 is 22.5 µM in the assay on OVCAR-8 ovarian; 53.2 µM in the assay on 786-0 renal; 18.6 µM in the assay with EKVX NSCLC; 28100 nM in the assay on UO-31 renal; 35.3 µM in the assay with PC-3 prostate; 24.5 µM in the assay on SNB-75 CNS. In addition, the GI50 with NCI-H460 lung is 41800 nM; with DU-145 prostate, 38.8 µM; in the assay on T-47D breast, 30.6 µM; in the assay with CCRF-CEM leukemia it was 29.9 µM. The TGI in the assay with OVCAR-8 ovarian was 62 µM; in the assay on 786-0 renal, more than 100 µM; in the assay with EKVX NSCLC it was 39.9 µM; in the assay with UO-31 renal, more than 100 µM; with PC-3 prostate, more than 100 µM; in the assay with SNB-75 CNS it was 86.6 µM. Also, the concentration for total growth inhibition (TGI) in the assay with NCI-H460 lung, with DU-145 prostate, in the assay with T-47D breast and in the assay with CCRF-CEM leukemia was more than 100 µM in each case.
For the molecule `COc1ccc2c(c1)C(=O)c1c-2c(Nc2ccc(C(C)=O)cc2)nc2ccccc12`, the GI50 in the assay on OVCAR-8 ovarian was 18 µM; with 786-0 renal it was 12.3 µM; in the assay with EKVX NSCLC it was 25.2 µM; with UO-31 renal it was more than 100000 nM; in the assay with PC-3 prostate, 34.3 µM; in the assay on SNB-75 CNS, 26.1 µM. For the same molecule, the GI50 was 85100 nM in the assay with NCI-H460 lung, 29 µM in the assay on DU-145 prostate, 77.2 µM with T-47D breast and more than 100 µM in the assay on CCRF-CEM leukemia. The TGI in the assay with OVCAR-8 ovarian is 64.9 µM; with 786-0 renal, 32.2 µM; in the assay with EKVX NSCLC, more than 100 µM; in the assay with UO-31 renal it was more than 100 µM; with PC-3 prostate, more than 100 µM; in the assay with SNB-75 CNS, more than 100 µM. Further, the TGI with NCI-H460 lung, with DU-145 prostate, in the assay on T-47D breast and in the assay with CCRF-CEM leukemia was more than 100 µM each time.
For the molecule `CN1CCN(Cc2ccc(NC(=O)c3cncc(C#Cc4cncc5ncccc45)c3)cc2C(F)(F)F)CC1`, the GI50 is 4.53 µM in the assay with OVCAR-8 ovarian; 9.81 µM in the assay with 786-0 renal; 3.91 µM with EKVX NSCLC; 1250 nM in the assay with UO-31 renal; 5.5 µM with PC-3 prostate; 5.83 µM in the assay with SNB-75 CNS. Also, the GI50 in the assay with NCI-H460 lung is 2500 nM; in the assay with DU-145 prostate, 4.64 µM; in the assay on T-47D breast, 10.9 µM; in the assay on CCRF-CEM leukemia, 3.27 µM. Also, the TGI in the assay on OVCAR-8 ovarian was determined as 18.3 µM; with 786-0 renal, 22.2 µM; with EKVX NSCLC, 16.8 µM; with UO-31 renal, 6.35 µM; with PC-3 prostate it was 24 µM; with SNB-75 CNS, 18.8 µM. Moreover, the TGI with NCI-H460 lung came out at 11.8 µM; in the assay with DU-145 prostate, 16.8 µM; in the assay with T-47D breast, 27.3 µM; in the assay with CCRF-CEM leukemia it was 34.8 µM.
`CC(C)(C#N)c1cc(F)cc(C(=O)Nc2cc(Nc3ncccc3-c3ncnc4nc[nH]c34)ccc2F)c1`: the GI50 in the assay on OVCAR-8 ovarian is 3.16 µM; with 786-0 renal, more than 10 µM; in the assay on EKVX NSCLC, 6.55 µM; in the assay on UO-31 renal, 287 nM; in the assay on PC-3 prostate it was 7.67 µM; in the assay on SNB-75 CNS it was 3.31 µM. In addition, the GI50 is 2510 nM in the assay on NCI-H460 lung, 5.51 µM in the assay on DU-145 prostate, 2.9 µM in the assay with T-47D breast and 3.91 µM in the assay on CCRF-CEM leukemia. For the same molecule, the TGI in the assay on OVCAR-8 ovarian was more than 10 µM; in the assay with 786-0 renal, more than 10 µM; in the assay on EKVX NSCLC it was more than 10 µM; with UO-31 renal, 3.64 µM; in the assay with PC-3 prostate, more than 10 µM; in the assay on SNB-75 CNS, more than 10 µM. The concentration for total growth inhibition (TGI) in the assay with NCI-H460 lung, in the assay on DU-145 prostate, with T-47D breast and with CCRF-CEM leukemia was more than 10 µM in each case.
For the molecule `COc1ccc(C2=NN(C(=O)c3cc(OC)c(OC)c(OC)c3)C(c3ccc(Cl)cc3)C2)cc1OC` (configuration not stated), the GI50 is 4.63 µM in the assay on OVCAR-8 ovarian; 2.14 µM in the assay on 786-0 renal; 5.86 µM with EKVX NSCLC; 1110 nM in the assay on UO-31 renal; 1.07 µM in the assay on PC-3 prostate; 0.746 µM in the assay with SNB-75 CNS. The GI50 with NCI-H460 lung was 2110 nM; in the assay with DU-145 prostate, 3.62 µM; in the assay on T-47D breast, 3.59 µM; with CCRF-CEM leukemia it was 2.34 µM. For the same molecule, the TGI with OVCAR-8 ovarian was more than 58.6 µM; in the assay on 786-0 renal, 27.5 µM; in the assay on EKVX NSCLC it was more than 100 µM; with UO-31 renal, 41.8 µM; in the assay with PC-3 prostate, more than 100 µM; with SNB-75 CNS it was 15.2 µM. The total growth inhibition concentration (TGI) in the assay with NCI-H460 lung was more than 100 µM; with DU-145 prostate, more than 58.9 µM; with T-47D breast it was more than 100 µM; in the assay with CCRF-CEM leukemia, more than 100 µM.
Turning to `CNC(=O)c1ccc2cc(C3(O)CCn4cncc43)ccc2c1` (configuration not stated), the GI50 with OVCAR-8 ovarian was more than 100 µM; with 786-0 renal, more than 100 µM; with EKVX NSCLC, more than 100 µM; in the assay with UO-31 renal it was more than 100000 nM; in the assay with PC-3 prostate it was more than 100 µM; in the assay with SNB-75 CNS, more than 100 µM. Further, the GI50 in the assay on NCI-H460 lung is more than 100000 nM; in the assay on DU-145 prostate it was more than 100 µM; in the assay on T-47D breast it was more than 100 µM; in the assay on CCRF-CEM leukemia, more than 100 µM. Besides, the TGI in the assay with OVCAR-8 ovarian, with 786-0 renal, in the assay with EKVX NSCLC, in the assay on UO-31 renal, in the assay on PC-3 prostate and with SNB-75 CNS was more than 100 µM each time. Further, the TGI in the assay with NCI-H460 lung, in the assay with DU-145 prostate, with T-47D breast and with CCRF-CEM leukemia was more than 100 µM in each case.
As for `OCC1OC(OCC(O)C(O)C(O)C(/C=N/Nc2ccccc2)=N/Nc2ccccc2)C(O)C(O)C1O` (configuration not stated), the TGI in the assay on OVCAR-8 ovarian, in the assay on 786-0 renal, in the assay with EKVX NSCLC, in the assay with UO-31 renal, in the assay on PC-3 prostate and in the assay on SNB-75 CNS was more than 100 µM throughout. Further, the TGI was more than 100 µM in the assay with NCI-H460 lung, more than 100 µM in the assay on DU-145 prostate, 56.9 µM with T-47D breast and more than 100 µM in the assay with CCRF-CEM leukemia.
Regarding `O=C(Nc1cccc(Oc2nnc(Cl)c3ccccc23)c1)Nc1ccc(Cl)c(C(F)(F)F)c1`, the GI50 in the assay with OVCAR-8 ovarian is 1.3 µM; in the assay with 786-0 renal, 0.767 µM; in the assay on EKVX NSCLC it was 0.646 µM; in the assay with UO-31 renal, 176 nM; with PC-3 prostate, 0.545 µM; in the assay with SNB-75 CNS, 1.61 µM. Moreover, the GI50 was 898 nM in the assay with NCI-H460 lung, 1.27 µM in the assay with DU-145 prostate, 0.384 µM with T-47D breast and 0.208 µM in the assay on CCRF-CEM leukemia. The total growth inhibition concentration (TGI) with OVCAR-8 ovarian was determined as 9.5 µM; in the assay on 786-0 renal it was 3.01 µM; with EKVX NSCLC, 6.49 µM; with UO-31 renal it was 4.19 µM; with PC-3 prostate, 2.51 µM; with SNB-75 CNS it was 5.63 µM. Besides, the TGI with NCI-H460 lung amounted to 3.44 µM; in the assay on DU-145 prostate, 4.08 µM; in the assay on T-47D breast, 2.24 µM; in the assay with CCRF-CEM leukemia, 17.5 µM.
As to `CN(C)CCOc1ccc(/C(=C(/CCCl)c2ccccc2)c2ccccc2)cc1`, the GI50 in the assay on OVCAR-8 ovarian was 1.08 µM; in the assay on 786-0 renal it was 0.906 µM; in the assay with EKVX NSCLC, 1.81 µM; with UO-31 renal it was 900 nM; in the assay with PC-3 prostate, 0.901 µM; with SNB-75 CNS it was 1.11 µM. Moreover, the GI50 is 845 nM in the assay on NCI-H460 lung, 1.88 µM in the assay on DU-145 prostate, 0.841 µM with T-47D breast and 1.06 µM in the assay on CCRF-CEM leukemia. In addition, the concentration for total growth inhibition (TGI) in the assay on EKVX NSCLC was 21 µM and 29.4 µM; in the assay with UO-31 renal, 13.8 µM and 30.9 µM; in the assay on SNB-75 CNS, 4.48 µM and 24.2 µM; with DU-145 prostate, 18.1 µM and 33.2 µM; in the assay on CCRF-CEM leukemia it was 2.85 µM and 23.5 µM.
